From ChEMBL document CHEMBL4130589, “Synthesis of Novel Selenides Bearing Benzenesulfonamide Moieties as Carbonic Anhydrase I, II, IV, VII, and IX Inhibitors” (ACS Med Chem Lett, 2017) come the findings set out here.

The target of the assay is Carbonic anhydrase 9 (Homo sapiens, UniProt Q16790). Put plainly: Inhibition of recombinant human carbonic anhydrase 9 incubated for 15 mins by stopped flow CO2 hydrase assay.
Turning to `C=C(C)[C@@H]1CCC(C)(O)C([Se]c2ccc(S(N)(=O)=O)cc2)C1` (stereo partly drawn), the inhibition constant (Ki) (in general, a measure of affinity in units of concentration, obtained from inhibition or displacement) is 2.4 nM.
On to `N#C[Se]c1ccc(S(N)(=O)=O)cc1`, for which the Ki was found to be 9.3 nM.
The result for `Cc1ccc(S(=O)(=O)N[C@H](C[Se]c2ccc(S(N)(=O)=O)cc2)Cc2ccccc2)cc1` reads 2.4 nM; that for `CC(C)[C@H](N)C[Se]c1ccc(S(N)(=O)=O)cc1`, 2.4 nM.
The result for `Cc1ccc(S(=O)(=O)N[C@H](C[Se]c2ccc(S(N)(=O)=O)cc2)C(C)C)cc1` reads 10.1 nM; that for `CCCCC(O)C[Se]c1ccc(S(N)(=O)=O)cc1` (stereo not drawn), 5.6 nM.
For the compound `NS(=O)(=O)c1ccc([Se]CC(O)CBr)cc1` (stereo not drawn), the inhibition constant (Ki) was determined as 6.5 nM.
The result for `NS(=O)(=O)c1ccc([Se]CC(O)COCc2ccccc2)cc1` (stereo not drawn) reads 10.1 nM; that for `NS(=O)(=O)c1ccc([Se]C2CCCCC2O)cc1` (stereo not drawn), 8.3 nM.
With `C=CCOCC(O)C[Se]c1ccc(S(N)(=O)=O)cc1` (stereo not drawn), the Ki amounted to 11.9 nM.
The result for `CC(C)OCC(O)C[Se]c1ccc(S(N)(=O)=O)cc1` (stereo not drawn) reads 15.9 nM.
The result for `CC(C)[C@@H](C[Se]c1ccc(S(N)(=O)=O)cc1)NC(=O)OC(C)(C)C` reads 2.3 nM; that for `NS(=O)(=O)c1ccc([Se][Se]c2ccc(S(N)(=O)=O)cc2)cc1`, 2.7 nM.
